Data reported in PubChem BioAssay (NCI).
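GI50: concentration for 50% inhibition of growth. TGI marks complete inhibition of growth.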

Columns and labels:
Test in all cases: NCI-60 cell line screen, 384-well format
[1] = system: SW-620 colon
[2] = system: SF-295 CNS
[3] = system: HOP-62 NSCLC
[4] = system: SK-MEL-5 melanoma
[5] = system: SF-268 CNS
[6] = system: EKVX NSCLC
[7] = system: NCI-H226 lung
[8] = system: HOP-92 NSCLC
[9] = system: SR leukemia
[10] = system: NCI-H522 lung
[11] = system: HCT-116 colon
[12] = system: HCT-15 colon
[13] = system: SF-539 CNS
[14] = system: OVCAR-4 ovarian
[15] = system: MCF7 breast
[16] = system: NCI/ADR-RES ovarian
[17] = system: A498 renal
[18] = system: SNB-19 CNS
[19] = system: OVCAR-5 ovarian
[20] = system: T-47D breast
[21] = system: PC-3 prostate
[22] = system: RPMI-8226 leukemia
[23] = system: CCRF-CEM leukemia
[24] = system: RXF 393 renal
[25] = system: 786-0 renal
[26] = system: DU-145 prostate
[27] = system: UO-31 renal
[28] = system: SNB-75 CNS
[29] = system: KM12 colon
[30] = system: IGROV1 ovarian
[31] = system: MDA-MB-435 melanoma
[32] = system: MOLT-4 leukemia
[33] = system: U251 glioblastoma
[34] = system: LOX IMVI melanoma
[35] = system: SN12C renal
[36] = system: HS 578T breast
[37] = system: CAKI-1 renal
[38] = system: SK-OV-3 ovarian
[39] = system: K-562 leukemia
[40] = system: SK-MEL-28 melanoma
[41] = system: HL-60(TB) leukemia
[42] = system: M14 melanoma
[43] = system: NCI-H460 NSCLC
[44] = system: HCC-2998 colon
[45] = system: UACC-257 melanoma
[46] = system: MDA-MB-468 breast
[47] = system: BT-549 breast
[48] = system: SK-MEL-2 melanoma
[49] = system: MALME-3M melanoma
[50] = system: OVCAR-3 ovarian
[51] = system: NCI-H23 lung
[52] = system: MDA-MB-231 breast
[53] = system: UACC-62 melanoma
[54] = system: HT29 colon
[55] = system: ACHN renal
[56] = system: A549 NSCLC
[57] = system: COLO 205 colon
[58] = system: NCI-H322M lung

COc1c(C)cnc(Cn2cnc3c(Cl)nc(N)nc32)c1C
GI50 [1]: 78.7 nM | TGI [1]: 5030 nM | GI50 [2]: 134 nM | TGI [2]: 654 nM | GI50 [3]: 112 nM | TGI [3]: 1150 nM | GI50 [4]: 59.6 nM | TGI [4]: 16000 nM | GI50 [5]: 133 nM | TGI [5]: 23800 nM | GI50 [6]: 319 nM | TGI [6]: 5030 nM | GI50 [7]: 245 nM | TGI [7]: > 100000 nM | GI50 [8]: 241 nM | TGI [8]: 737 nM | GI50 [9]: 16.3 nM | TGI [9]: 31.1 nM | GI50 [10]: 61.7 nM | TGI [10]: 313 nM | GI50 [11]: 194 nM | TGI [11]: > 100000 nM | GI50 [12]: 59.6 nM | TGI [12]: 13100 nM | GI50 [13]: 97.2 nM | TGI [13]: 389 nM | GI50 [14]: 286 nM | TGI [14]: 27400 nM | GI50 [15]: 51.2 nM | TGI [15]: > 100000 nM | GI50 [16]: 177 nM | TGI [16]: 498 nM | GI50 [17]: 381 nM | TGI [17]: > 100000 nM | GI50 [18]: 262 nM | TGI [18]: 5620 nM | GI50 [19]: 264 nM | TGI [19]: > 100000 nM | GI50 [20]: 339 nM | TGI [20]: 14800 nM | GI50 [21]: 137 nM | TGI [21]: 664 nM | GI50 [22]: 71.5 nM | TGI [22]: 296 nM | GI50 [23]: 36.9 nM | TGI [23]: 430 nM | GI50 [24]: 692 nM | TGI [24]: 7520 nM | GI50 [25]: 89.4 nM | TGI [25]: 2780 nM | GI50 [26]: 40.7 nM | TGI [26]: 1410 nM | GI50 [27]: 74.5 nM | TGI [27]: > 100000 nM | GI50 [28]: 357 nM | TGI [28]: 2080 nM | GI50 [29]: 52.3 nM | TGI [29]: 14000 nM | GI50 [30]: 55.9 nM | TGI [30]: 626 nM | GI50 [31]: 154 nM | TGI [31]: 53700 nM | GI50 [32]: 36.2 nM | TGI [32]: 123 nM | GI50 [33]: 47.3 nM | TGI [33]: 1300 nM | GI50 [34]: 115 nM | TGI [34]: 245 nM | GI50 [35]: 143 nM | TGI [35]: 488 nM | GI50 [36]: 307 nM | TGI [36]: 1410 nM | GI50 [37]: 470 nM | TGI [37]: 2870 nM | GI50 [38]: 264 nM | TGI [38]: 5000 nM | GI50 [39]: 55.8 nM | TGI [39]: 621 nM | GI50 [40]: 388 nM | TGI [40]: 16200 nM | GI50 [41]: 52.2 nM | TGI [41]: 172 nM | GI50 [42]: 287 nM | TGI [42]: 18100 nM | GI50 [43]: 34 nM | TGI [43]: 123 nM | GI50 [44]: 92.3 nM | TGI [44]: 438 nM | GI50 [45]: 651 nM | TGI [45]: 34600 nM | GI50 [46]: 62.2 nM | TGI [46]: 276 nM | GI50 [47]: 50.8 nM | TGI [47]: 269 nM | GI50 [48]: 482 nM | TGI [48]: 783 nM | GI50 [49]: 189 nM | TGI [49]: 438 nM | GI50 [50]: 165 nM | TGI [50]: 13800 nM | GI50 [51]: 149 nM | TGI [51]: 500 nM | GI50 [52]: 272 nM | TGI [52]: 927 nM | GI50 [53]: 145 nM | TGI [53]: 711 nM | GI50 [54]: 61.5 nM | TGI [54]: > 100000 nM | GI50 [55]: 163 nM | TGI [55]: 38000 nM | GI50 [56]: 73.9 nM | TGI [56]: > 100000 nM | GI50 [57]: 28.6 nM | TGI [57]: 98.1 nM | GI50 [58]: 167 nM | TGI [58]: 80100 nM
